Measurements taken from patent publication US20210395239A1 (Hoffmann-La Roche Inc., priority 2018, published 2021).
Where two headings read alike, the source gives them in different places.

Key:
hERG channel = biological target: T1, hERG channel (Homo sapiens, UniProt Q12809); assay: hERG channel inhibition assay (patch-clamp, CHOhERG cells); assay type: cell-based; conditions: for safety window (hERG IC20/TLR7/8/9 IC50) compared to the compounds of this invention: result in words; for hERG IC20/TLR7 IC50 / hERG IC20/TLR9 IC50 / hERG IC20/TLR8 IC50: safety ratio
T1 construct: expressed in transfected cells; host or cells: CHO (Chinese hamster ovary)
T1 sequence (Q12809 whole entry): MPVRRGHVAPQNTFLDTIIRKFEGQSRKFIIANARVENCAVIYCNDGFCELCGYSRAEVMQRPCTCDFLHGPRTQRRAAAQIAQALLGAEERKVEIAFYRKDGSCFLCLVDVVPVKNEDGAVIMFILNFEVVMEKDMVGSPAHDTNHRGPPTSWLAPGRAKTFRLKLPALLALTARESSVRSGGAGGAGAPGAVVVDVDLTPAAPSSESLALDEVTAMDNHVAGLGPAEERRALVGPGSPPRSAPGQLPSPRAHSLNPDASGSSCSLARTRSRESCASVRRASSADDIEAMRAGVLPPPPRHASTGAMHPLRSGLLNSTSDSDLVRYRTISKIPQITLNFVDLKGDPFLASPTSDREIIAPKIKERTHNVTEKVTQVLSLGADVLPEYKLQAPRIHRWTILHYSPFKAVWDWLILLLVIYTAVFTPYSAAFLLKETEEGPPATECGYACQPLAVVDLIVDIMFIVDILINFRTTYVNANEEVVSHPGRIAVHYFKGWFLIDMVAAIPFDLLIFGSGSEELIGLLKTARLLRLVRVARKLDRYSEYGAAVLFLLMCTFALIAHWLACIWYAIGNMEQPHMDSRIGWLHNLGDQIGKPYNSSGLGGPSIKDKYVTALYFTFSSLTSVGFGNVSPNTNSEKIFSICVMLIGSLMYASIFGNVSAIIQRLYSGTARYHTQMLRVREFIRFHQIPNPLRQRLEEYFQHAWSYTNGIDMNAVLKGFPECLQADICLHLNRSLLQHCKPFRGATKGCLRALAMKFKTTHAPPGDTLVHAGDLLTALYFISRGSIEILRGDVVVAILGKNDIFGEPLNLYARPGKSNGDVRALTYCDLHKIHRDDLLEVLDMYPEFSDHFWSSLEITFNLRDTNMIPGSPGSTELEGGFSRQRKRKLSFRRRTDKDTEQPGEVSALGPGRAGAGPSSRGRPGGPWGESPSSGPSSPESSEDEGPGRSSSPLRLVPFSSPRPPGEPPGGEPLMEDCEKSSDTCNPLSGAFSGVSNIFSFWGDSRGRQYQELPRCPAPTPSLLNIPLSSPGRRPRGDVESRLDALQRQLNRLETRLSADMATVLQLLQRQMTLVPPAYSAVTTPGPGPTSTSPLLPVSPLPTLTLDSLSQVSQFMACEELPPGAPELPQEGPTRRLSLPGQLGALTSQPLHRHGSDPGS
Method: hERG Channel Inhibition Assay:
The hERG K^+ channels were cloned in humans and stably expressed in a CHO (Chinese hamster ovary) cell line. CHOhERG cells were used for patch-clamp (voltage-clamp, whole-cell) experiments. Cells were stimulated by a voltage pattern to activate hERG channels and conduct IKhERG currents (rapid delayed outward rectifier potassium current of the hERG channel). After the cells were stabilized for a few minutes, the amplitude and kinetics of IKhERG were recorded at a stimulation frequency of 0.1 Hz, (6 bpm). Thereafter, the test compound was added to the preparation at increasing concentrations. For each concentration, an attempt was made to reach a steady-state effect, usually, this was achieved within 3-10 min at which time the next highest concentration was applied. The amplitude and kinetics of IKhERG are recorded in each concentration of the drug which were compared to the control values (taken as 100%). (references: Redfern W S, Carlsson L, Davis A S, Lynch W G, MacKenzie I, Palethorpe S, Siegl P K, Strang I, Sullivan A T, Wallis R, Camm A J, Hammond T G. 2003; Relationships between preclinical cardiac electrophysiology, clinical QT interval prolongation and torsade de pointes for a broad range of drugs: evidence for a provisional safety margin in drug development. Cardiovasc. Res. 58:32-45, Sanguinetti M C, Tristani-Firouzi M. 2006; hERG potassium channels and cardiac arrhythmia. Nature 440:463-469, Webster R, Leishman D, Walker D. 2002; Towards a drug concentration effect relationship for QT prolongation and torsades de pointes. Curr. Opin. Drug Discov. Devel. 5:116-26).

hTLR9 [1] = biological target: T2, hTLR9 (Homo sapiens, UniProt Q9NR96); set-up: host or cells: HEK; conditions: data disclosed in US20150105370; read-out: HEK/hTLR9 IC50; cited from earlier work
T2 sequence (Q9NR96 26-1032): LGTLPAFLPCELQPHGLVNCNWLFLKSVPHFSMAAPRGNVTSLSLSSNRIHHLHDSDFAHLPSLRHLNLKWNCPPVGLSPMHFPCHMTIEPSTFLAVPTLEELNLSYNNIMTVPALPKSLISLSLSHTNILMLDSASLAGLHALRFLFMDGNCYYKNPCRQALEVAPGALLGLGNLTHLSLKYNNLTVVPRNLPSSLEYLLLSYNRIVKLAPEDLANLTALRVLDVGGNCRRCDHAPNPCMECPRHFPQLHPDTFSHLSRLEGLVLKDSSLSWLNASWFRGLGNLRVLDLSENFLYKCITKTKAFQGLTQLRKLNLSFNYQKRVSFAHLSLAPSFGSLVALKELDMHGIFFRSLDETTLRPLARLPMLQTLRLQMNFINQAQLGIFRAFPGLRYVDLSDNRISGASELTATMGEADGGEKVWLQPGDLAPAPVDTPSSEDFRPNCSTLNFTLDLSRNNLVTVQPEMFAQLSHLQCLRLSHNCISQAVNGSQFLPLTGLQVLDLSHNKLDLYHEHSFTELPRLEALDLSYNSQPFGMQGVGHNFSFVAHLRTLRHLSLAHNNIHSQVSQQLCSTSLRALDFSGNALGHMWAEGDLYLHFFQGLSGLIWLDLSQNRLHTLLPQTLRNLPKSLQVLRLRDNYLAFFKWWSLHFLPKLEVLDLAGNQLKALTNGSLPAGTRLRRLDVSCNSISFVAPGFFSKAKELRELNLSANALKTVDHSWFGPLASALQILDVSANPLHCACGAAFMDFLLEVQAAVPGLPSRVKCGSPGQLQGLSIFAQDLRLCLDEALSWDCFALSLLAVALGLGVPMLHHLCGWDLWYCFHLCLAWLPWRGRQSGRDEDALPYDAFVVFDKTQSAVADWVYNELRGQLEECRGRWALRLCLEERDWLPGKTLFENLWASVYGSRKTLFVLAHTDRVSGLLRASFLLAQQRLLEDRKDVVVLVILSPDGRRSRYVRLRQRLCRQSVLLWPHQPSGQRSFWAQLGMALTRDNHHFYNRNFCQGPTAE

hTLR9 [2] = biological target: T2, hTLR9; assay: HEK293-Blue-hTLR-9 cells assay (SEAP reporter, ODN2006 stimulation); assay type: cell-based; set-up: host or cells: HEK293 (HEK-Blue hTLR9); conditions: HEK293-Blue-hTLR9 cells, ODN2006, 20 hrs; read-out: HEK/hTLR9 IC50
Source text: HEK293-Blue-hTLR-9 Cells Assay:
A stable HEK293-Blue-hTLR-9 cell line was purchased from InvivoGen (Cat. #: hkb-htlr9, San Diego, Calif., USA). These cells were originally designed for studying the stimulation of human TLR9 by monitoring the activation of NF-κB. A SEAP (secreted embryonic alkaline phosphatase) reporter gene was placed under the control of the IFN-β minimal promoter fused to five NF-κB and AP-1-binding sites. The SEAP was induced by activating NF-κB and AP-1 via stimulating HEK-Blue hTLR9 cells with TLR9 ligands. Therefore the reporter expression was declined by TLR9 antagonist under the stimulation of a ligand, such as ODN2006 (Cat. #: tlrl-2006-1, Invivogen, San Diego, Calif., USA), for incubation of 20 hrs. The cell culture supernatant SEAP reporter activity was determined using QUANTI-Blue™ kit (Cat. #: rep-qb1, Invivogen, San Diego, Calif., USA) at a wavelength of 640 nm, a detection medium that turns purple or blue in the presence of alkaline phosphatase.
HEK293-Blue-hTLR9 cells were incubated at a density of 250,000˜450,000 cells/mL in a volume of 170 μL in a 96-well plate in Dulbecco's Modified Eagle's medium (DMEM) containing 4.5 g/L glucose, 50 U/mL penicillin, […], 2 mM L-glutamine, 10% (v/v) heat-inactivated fetal bovine serum with addition of 20 μL test compound in a serial dilution in the presence of final DMSO at 1% and 10 μL of 20 uM ODN2006 in above DMEM, perform incubation under 37° C. in a CO2 incubator for 20 hrs. Then 20 μL of the supernatant from each well was incubated with 180 μL Quanti-blue substrate solution at 37° C. for 2 h and the absorbance was read at 620-655 nm using a spectrophotometer. The signaling pathway that TLR9 activation leads to downstream NF-κB activation has been widely accepted, and therefore similar reporter assay was modified for evaluating TLR9 antagonist.

human TLR7 = biological target: T3, human TLR7 (Homo sapiens, UniProt Q9NYK1); assay: HEK293-Blue-hTLR-7 cells assay (SEAP reporter, R848 stimulation); assay type: cell-based; conditions: HEK293-Blue-hTLR7 cells, R848, 20 hrs; read-out: HEK/hTLR7 IC50
T3 construct: host or cells: HEK293 (HEK-Blue hTLR7)
T3 sequence (Q9NYK1 27-1049): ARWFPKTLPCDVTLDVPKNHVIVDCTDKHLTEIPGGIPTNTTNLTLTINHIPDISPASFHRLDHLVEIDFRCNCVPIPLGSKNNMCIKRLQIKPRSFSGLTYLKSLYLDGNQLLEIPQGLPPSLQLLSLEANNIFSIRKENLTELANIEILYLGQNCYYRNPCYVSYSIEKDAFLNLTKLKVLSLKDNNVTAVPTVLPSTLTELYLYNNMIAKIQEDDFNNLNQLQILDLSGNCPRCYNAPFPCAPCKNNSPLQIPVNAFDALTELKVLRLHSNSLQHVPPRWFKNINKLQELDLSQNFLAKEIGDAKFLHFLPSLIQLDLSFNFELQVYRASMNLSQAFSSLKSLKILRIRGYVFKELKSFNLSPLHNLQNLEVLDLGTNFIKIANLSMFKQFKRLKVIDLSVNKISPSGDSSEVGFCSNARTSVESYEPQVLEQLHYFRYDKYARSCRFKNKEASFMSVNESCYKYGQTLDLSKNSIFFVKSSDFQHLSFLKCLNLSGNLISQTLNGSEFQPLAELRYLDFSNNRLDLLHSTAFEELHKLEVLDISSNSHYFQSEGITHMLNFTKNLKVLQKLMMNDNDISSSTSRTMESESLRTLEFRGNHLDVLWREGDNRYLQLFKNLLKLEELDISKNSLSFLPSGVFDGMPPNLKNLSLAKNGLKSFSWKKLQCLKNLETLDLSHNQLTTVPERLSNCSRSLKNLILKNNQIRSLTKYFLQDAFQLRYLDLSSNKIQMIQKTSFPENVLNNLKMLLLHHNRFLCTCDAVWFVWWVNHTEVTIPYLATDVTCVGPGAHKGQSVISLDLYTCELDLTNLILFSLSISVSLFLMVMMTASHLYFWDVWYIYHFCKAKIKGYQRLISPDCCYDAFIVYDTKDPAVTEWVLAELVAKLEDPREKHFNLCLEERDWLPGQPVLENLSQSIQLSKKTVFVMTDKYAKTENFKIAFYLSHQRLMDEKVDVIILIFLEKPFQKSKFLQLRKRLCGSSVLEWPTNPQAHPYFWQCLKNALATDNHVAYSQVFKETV
Source text: HEK293-Blue-hTLR-7 Cells Assay:
A stable HEK293-Blue-hTLR-7 cell line was purchased from InvivoGen (Cat. #: hkb-ht1r7, San Diego, Calif., USA). These cells were originally designed for studying the stimulation of human TLR7 by monitoring the activation of NF-κB. A SEAP (secreted embryonic alkaline phosphatase) reporter gene was placed under the control of the IFN-β minimal promoter fused to five NF-κB and AP-1-binding sites. The SEAP was induced by activating NF-κB and AP-1 via stimulating HEK-Blue hTLR7 cells with TLR7 ligands. Therefore the reporter expression was declined by TLR7 antagonist under the stimulation of a ligand, such as R848 (Resiquimod), for incubation of 20 hrs. The cell culture supernatant SEAP reporter activity was determined using QUANTI-Blue™ kit (Cat. #: rep-qb1, Invivogen, San Diego, Ca, USA) at a wavelength of 640 nm, a detection medium that turns purple or blue in the presence of alkaline phosphatase.
HEK293-Blue-hTLR7 cells were incubated at a density of […] cells/mL in a volume of 170 μL in a 96-well plate in Dulbecco's Modified Eagle's medium (DMEM) containing 4.5 g/L glucose, 50 U/mL penicillin, […], […], 2 mM L-glutamine, 10% (v/v) heat-inactivated fetal bovine serum with addition of 20 μL test compound in a serial dilution in the presence of final DMSO at 1% and 10 μL of 20 uM R848 in above DMEM, perform incubation under 37° C. in a CO2 incubator for 20 hrs. Then 20 μL of the supernatant from each well was incubated with 180 μL Quanti-blue substrate solution at 37° C. for 2 hrs and the absorbance was read at 620˜655 nm using a spectrophotometer. The signaling pathway that TLR7 activation leads to downstream NF-κB activation has been widely accepted, and therefore similar reporter assay was modified for evaluating TLR7 antagonist.

SMILES | safety window (hERG IC20/TLR7/8/9 IC50) compared to the compounds of this invention (hERG channel) | hERG IC20/TLR7 IC50 (hERG channel) | hERG IC20/TLR9 IC50 (hERG channel) | IC50 (hTLR9 [1]) [nM] | further results
C[C@@H]1CN(c2ccc(C#N)c3ncccc23)C[C@H](CN2CCN(c3ccccc3)CC2)O1 [ER-887258, reference compound] | much narrower safety window | 8.1 | 0.3 | > 2000 | 
C[C@@H]1CN(c2ccc(C#N)c3ncccc23)C[C@H](CN2CC(NS(=O)(=O)c3ccc(F)cc3)C2)O1 [ER-894155] |  |  |  | > 10000 | 
Cc1nn(C)cc1S(=O)(=O)NC1CCN(C[C@H]2CN(c3ccc(C#N)c4ncccc34)C[C@@H](C)O2)CC1 [ER-894160] |  |  |  | > 10000 | 
C[C@@H]1CN(c2ccc(C#N)c3ncccc23)C[C@H](CN2CC[C@@H](NC(=O)c3ccccc3)C2)O1 [ER-894544] |  |  |  | > 6200 | 
[2H]c1nc2c(C#N)ccc(N3C[C@H](CN4CCN(c5nc(C)cc(N6C[C@H](OC)[C@@H](N)C6)n5)CC4)O[C@H](C)C3)c2nc1[2H] [Example 105, 8-[(2S,6R)-2-[[4-[4-[(3S,4S)-3-amino-4-methoxy-pyrrolidin-1-yl]-6-methyl-pyrimidin-2-yl]piperazin-1-yl]methyl]-6-methyl-morpholin-4-yl]-2,3-dideuterio-quinoxaline-5-carbonitrile] |  |  |  |  | IC50 (hTLR9 [2]): 69 nM; IC50 (human TLR7): 13 nM
COc1ccc(N2CCN(C[C@H]3CN(c4ccc(C#N)c5ncccc45)C[C@@H](C)O3)CC2)cc1 [Example R1, 5-[(2S,6R)-2-[[4-(4-methoxyphenyl)piperazin-1-yl]methyl]-6-methyl-morpholin-4-yl]quinoline-8-carbonitrile, reference compound] | much narrower safety window | 9.3 | 0.1 |  | hERG IC20/TLR8 IC50 (hERG channel): 6.2
C[C@@H]1CN(c2ccc(C#N)c3ncccc23)C[C@H](CN2CCN(c3ccc(Cl)cc3)CC2)O1 [Example R2, 5-[(2S,6R)-2-[[4-(4-chlorophenyl)piperazin-1-yl]methyl]-6-methyl-morpholin-4-yl]quinoline-8-carbonitrile, reference compound] | much narrower safety window | 1.3 | 0.04 |  | hERG IC20/TLR8 IC50 (hERG channel): 0.8
